Experimental data as given in patent EP4644396A1 (Visionpharma (Nantong) Co., Ltd, priority 2022, dated 2024).

The compounds below were run against T1, human TLR8 (Homo sapiens, UniProt Q9NR97) (assay: HEK-Blue hTLR8 SEAP reporter gene inhibition assay). Conditions: HEK-Blue hTLR8 IC50 (µM).
T1 construct: expressed in transfected cells
T1 sequence (Q9NR97 27-1041): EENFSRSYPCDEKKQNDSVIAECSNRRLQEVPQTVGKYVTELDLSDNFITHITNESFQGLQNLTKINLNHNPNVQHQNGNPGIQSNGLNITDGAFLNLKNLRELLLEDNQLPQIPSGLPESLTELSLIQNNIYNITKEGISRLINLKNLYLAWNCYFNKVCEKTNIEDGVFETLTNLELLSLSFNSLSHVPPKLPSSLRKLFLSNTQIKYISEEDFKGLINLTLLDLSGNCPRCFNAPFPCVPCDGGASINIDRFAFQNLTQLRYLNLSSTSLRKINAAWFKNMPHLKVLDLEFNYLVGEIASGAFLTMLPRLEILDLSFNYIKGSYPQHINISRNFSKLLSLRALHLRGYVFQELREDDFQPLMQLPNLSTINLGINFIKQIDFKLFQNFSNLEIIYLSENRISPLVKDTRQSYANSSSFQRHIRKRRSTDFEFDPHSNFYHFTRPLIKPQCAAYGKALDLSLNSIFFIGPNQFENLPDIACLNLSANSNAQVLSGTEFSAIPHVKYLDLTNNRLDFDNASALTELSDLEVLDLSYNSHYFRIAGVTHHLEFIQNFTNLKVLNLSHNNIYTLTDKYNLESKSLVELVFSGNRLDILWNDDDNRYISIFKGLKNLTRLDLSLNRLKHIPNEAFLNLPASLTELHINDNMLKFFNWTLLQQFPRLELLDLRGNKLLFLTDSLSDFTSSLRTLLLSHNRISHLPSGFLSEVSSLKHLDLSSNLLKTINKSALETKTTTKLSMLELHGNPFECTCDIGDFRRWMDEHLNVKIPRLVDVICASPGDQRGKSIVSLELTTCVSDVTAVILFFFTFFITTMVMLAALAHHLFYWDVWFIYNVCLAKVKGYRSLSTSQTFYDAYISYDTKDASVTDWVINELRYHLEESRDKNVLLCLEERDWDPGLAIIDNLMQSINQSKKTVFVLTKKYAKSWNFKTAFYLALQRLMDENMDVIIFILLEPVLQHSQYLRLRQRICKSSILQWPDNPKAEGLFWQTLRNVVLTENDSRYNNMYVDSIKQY
Assay type: cell-based
Protocol: HEK-Blue cells with stable expression of human TLR7 or TLR8 were used in the evaluation of inhibitory activity of compounds in the present invention against TLR7 or TLR8, by using its ability to induce the SEAP reporting gene under the control of the fusion of IFN-β minimum promoters into five NF-κB and ap-1 binding sites, as follows: hTLR7 HEK-Blue cells (Invivogen, 80, 000 cells per well) or hTLR8 HEK-Blue cells (60, 000 cells per well) were added to a 96-well cell culture plate. A solution of the testing compounds were added to each well, with the final concentration of tested compounds in the medium ranged from 0.001 to 36 µM and the culture was incubated for 15 minutes. M5049 was used as positive controls in the testing.
Then a TLR7 ligand (Gardiquimod, purchased from MedChemExpress, with final concentration of ligand in cell culture medium kept at 10 µM) or a TLR8 ligand (purchased from MedChemExpress with final concentration in cell culture media at 10 µM) and the culture was incubated for 20 hours. According to the manufacturer's instructions, a HEK-Blue reagent Quanti-blue (Invivogen) was used to detect the SEAP levels in cell cultures. The half […] concentration or IC50 was calculated by using GraphPad Prism. […] Table 1: Activities of examples in this invention to hTLR7/8 in HEK-Blue Cells

In the case of `C[C@@H]1CN(c2ccc(C#N)n3ncc(F)c23)Cc2c3c(nn21)CN(Cc1ccn[nH]1)CC3` [Example I-29], the IC50 is reported as < 0.1 µM.

Same assay, conditions: hTLR8 HEK-Blue cells, TLR8 ligand 10 µM, 20 hours, SEAP by Quanti-blue; class symbols; read-out: HEK-Blue hTLR8 IC50

`C[C@@H]1CN(c2ccc(C#N)n3ncc(F)c23)Cc2c3c(nn21)CCNC3CO` (stereo partly drawn) [Example I-46, 3-fluoro-4-((7R)-1-(hydroxymethyl)-7-methyl-1,3,4,7,8,10-hexahydropyrido[4',3':3,4]pyrazolo[1,5-a]pyrazin-9(2H)-yl)pyrazolo[1,5-a]pyridine-7-carbonitrile] and `CC(C)CC1NCCc2c1nn1c2CN(c2ccc(C#N)n3ncc(F)c23)C[C@H]1C` (stereo partly drawn) [Example I-69, 3-Fluoro-4-((4R)-7-isobutyl-4-methyl-3,4,7,8,9,10-hexahydropyrido[3',4':3,4]pyrazolo [1,5-a]pyrazin-2(1H)-yl)pyrazolo[1,5-a]pyridine-7-carbonitrile] cannot be ordered by IC50: < 0.1 µM for the first, < 0.1 µM for the second.

First: C[C@@H]1CN(c2ccc(C#N)n3ncc(F)c23)Cc2c3c(nn21)CC(CN1CCOCC1)NC3 (stereo partly drawn) [Example I-47, 3-Fluoro-4-((7R)-7-methyl-3-(morpholinomethyl)-1,3,4,7,8,10-hexahydropyrido [4',3':3,4]pyrazolo[1,5-a]pyrazin-9(2H)-yl)pyrazolo[1,5-a]pyridine-7-carbonitrile]
Second: C[C@@H]1CN(c2ccc(C#N)n3ncc(F)c23)Cc2c3c(nn21)CC(N)C(O)C3 (stereo partly drawn) [Example I-37, 4-((4R)-8-amino-9-hydroxy-4-methyl-3,4,7,8,9,10-hexahydropyrazino [1,2-b]indazol-2(1H)-yl)-3-fluoropyrazolo[1,5-a]pyridine-7-carbonitrile]
The IC50 of the first is higher: > 0.1 µM for the first, < 0.1 µM for the second.

First: C[C@@H]1CN(c2ccc(C#N)n3ncc(F)c23)Cc2c3c(nn21)CNCC3O (stereo partly drawn) [Example I-38, 3-Fluoro-4-((4R)-10-hydroxy-4-methyl-3,4,7,8,9,10-hexahydropyrido[3',4':3,4]pyrazolo[1,5-a]pyrazin-2(1H)-yl)pyrazolo[1,5-a]pyridine-7-carbonitrile]
Second: C[C@@H]1CN(c2ccc(C#N)n3ncc(F)c23)Cc2c3c(nn21)CC(CO)NC3 (stereo partly drawn) [Example I-36, 3-Fluoro-4-((7R)-3-(hydroxymethyl)-7-methyl-1,3,4,7,8,10-hexahydropyrido[4',3':3,4]pyrazolo[1,5-a]pyrazin-9(2H)-yl)pyrazolo[1,5-a]pyridine-7-carbonitrile]
The IC50 of the first is higher: > 0.1 µM for the first, < 0.1 µM for the second.

`C[C@@H]1CN(c2ccc(C#N)n3ncc(F)c23)Cc2c3c(nn21)C(CO)CNC3` (stereo partly drawn) [Example I-35, 3-Fluoro-4-((7R)-4-(hydroxymethyl)-7-methyl-1,3,4,7,8,10-hexahydropyrido[4',3':3,4]pyrazolo[1,5-a]pyrazin-9(2H)-yl)pyrazolo[1,5-a]pyridine-7-carbonitrile] and `C[C@@H]1CN(c2ccc(C#N)n3ncc(F)c23)Cc2c3c(nn21)CN(CC(=O)N1C[C@H](C)N[C@@H](C)C1)[C@@H](C)C3` [Example I-145, 4-((4R,9S)-8-(2-((3S,5S)-3,5-dimethylpiperazin-1-yl)-2-oxoethyl)-4,9-dimethyl-3,4,7,8,9,10-hexahydropyrido[3',4':3,4]pyrazolo[1,5-a]pyrazin-2(1H)-yl)-3-fluoropyrazolo[1,5-a]pyridine-7-carbonitrile] cannot be ordered by IC50: < 0.1 µM for the first, < 0.1 µM for the second.

“4-((4R,9S)-8-(L-prolyl)-4,9-dimethyl-3,4,7,8,9,10-hexahydropyrido[3',4':3,4]pyrazolo [1,5-a]pyrazin-2(1H)-yl)-3-fluoropyrazolo[1,5-a]pyridine-7-carbonitrile [Example I-114]” and `C[C@@H]1CN(c2ccc(C#N)n3ncc(F)c23)Cc2c3c(nn21)CN(C1CCNCC1O)C(=O)C3` (stereo partly drawn) [Example I-32, 3-Fluoro-4-((4R)-8-(3-hydroxypiperidin-4-yl)-4-methyl-9-oxo-3,4,7,8,9,10-hexahydropyrido[3',4':3,4]pyrazolo[1,5-a]pyrazin-2(1H)-yl)pyrazolo[1,5-a]pyridine-7-carbonitrile] cannot be ordered by IC50: < 0.1 µM for the first, < 0.1 µM for the second.

Compared with `CCC1CN(c2ccc(C#N)n3ncc(F)c23)Cc2c3c(nn21)CNCC3` (stereo not shown) [Example I-17, 4-(4-Ethyl-3,4,7,8,9,10-hexahydropyrido[3',4':3,4]pyrazolo[1,5-a]pyrazin-2(1H)-yl)-3-fluoropyrazolo[1,5-a]pyridine-7-carbonitrile], `C[C@@H]1CN(c2ccc(C#N)n3ncc(F)c23)Cc2c3c(nn21)CC1CCC3N1` (stereo partly drawn) [Example I-44, 3-Fluoro-4-((4R)-4-methyl-1,3,4,7,8,9,10,11-octahydro-2H-8,11-epiminocyclohepta [3,4]pyrazolo[1,5-a]pyrazin-2-yl)pyrazolo[1,5-a]pyridine-7-carbonitrile] is lower in IC50: > 0.1 µM for the first, < 0.1 µM for the second. The second is the more potent here.

Going from `C[C@@H]1CN(c2ccc(C#N)n3ncc(F)c23)Cc2c3c(nn21)CN(CCO)CC3` [Example I-19, (R)-3-Fluoro-4-(8-(2-hydroxyethyl)-4-methyl-3,4,7,8,9,10-hexahydropyrido[3',4':3,4]pyrazolo[1,5-a]pyrazin-2(1H)-yl)pyrazolo[1,5-a]pyridine-7-carbonitrile] to `C[C@@H]1CN(c2ccc(C#N)n3ncc(F)c23)Cc2c3c(nn21)CC(N)CC3` (stereo partly drawn) [Example I-20, 4-((4R)-8-amino-4-methyl-3,4,7,8,9,10-hexahydropyrazino[1,2-b]indazol-2(1H)-yl)-3-fluoropyrazolo[1,5-a]pyridine-7-carbonitrile], the IC50 falls from > 0.1 µM to < 0.1 µM.

`C[C@@H]1CN(c2ccc(C#N)n3ncc(F)c23)Cc2c3c(nn21)CC(N1CCOCC1)CC3` (stereo partly drawn) [Example I-31, 3-Fluoro-4-((4R)-4-methyl-8-morpholino-3,4,7,8,9,10-hexahydropyrazino[1,2-b]indazol-2(1H)-yl)pyrazolo[1,5-a]pyridine-7-carbonitrile] and `C[C@@H]1CN(c2ccc(C#N)n3ncc(F)c23)Cc2c3c(nn21)CC(N)CCC3` (stereo partly drawn) [Example I-214, 4-((4R)-8-amino-4-methyl-1,3,4,7,8,9,10,11-octahydro-2H-cyclohepta[3,4]pyrazolo[1,5-a]pyrazin-2-yl)-3-fluoropyrazolo[1,5-a]pyridine-7-carbonitrile] cannot be ordered by IC50: < 0.1 µM for the first, < 0.1 µM for the second.

`C[C@@H]1CN(c2ccc(C#N)n3ncc(F)c23)Cc2c3c(nn21)CC(C)(C)NC3` [Example I-78, (R)-3-Fluoro-4-(3,3,7-trimethyl-1,3,4,7,8,10-hexahydropyrido[4',3':3,4]pyrazolo [1,5-a]pyrazin-9(2H)-yl)pyrazolo[1,5-a]pyridine-7-carbonitrile] and `CC(C)C1NCCc2c1nn1c2CN(c2ccc(C#N)n3ncc(F)c23)C[C@H]1C` (stereo partly drawn) [Example I-70, 3-Fluoro-4-((4R)-7-isopropyl-4-methyl-3,4,7,8,9,10-hexahydropyrido[3',4':3,4]pyrazolo[1,5-a]pyrazin-2(1H)-yl)pyrazolo[1,5-a]pyridine-7-carbonitrile] cannot be ordered by IC50: < 0.1 µM for the first, < 0.1 µM for the second.

`COC[C@@H]1CCCN1CC(=O)N1Cc2nn3c(c2C[C@@H]1C)CN(c1ccc(C#N)n2ncc(F)c12)C[C@H]3C` [Example I-109, 3-Fluoro-4-((4R,9S)-8-(2-((S)-2-(methoxymethyl)pyrrolidin-1-yl)acetyl)-4,9-dimethyl-3,4,7,8,9,10-hexahydropyrido[3',4':3,4]pyrazolo[1,5-a]pyrazin-2(1H)-yl)pyrazolo[1,5-a]pyridine-7-carbonitrile] and `C[C@@H]1CN(c2ccc(C#N)n3ncc(F)c23)Cc2c3c(nn21)CC(C)(N)CC3` (stereo partly drawn) [Example I-71, 4-((4R)-8-amino-4,8-dimethyl-3,4,7,8,9,10-hexahydropyrazino[1,2-b]indazol-2(1H)-yl)-3-fluoropyrazolo[1,5-a]pyridine-7-carbonitrile] cannot be ordered by IC50: < 0.1 µM for the first, < 0.1 µM for the second.

“4-((4R,9S)-4,9-dimethyl-8-((2R,6R)-6-methylmorpholine-2-carbonyl)-3,4,7,8,9,10-hexahydropyrido[3',4':3,4]pyrazolo[1,5-a]pyrazin-2(1H)-yl)-3-fluoropyrazolo[1,5-a]pyridine-7-carbonitrile [Example I-122]” was tested, and the IC50 was < 0.1 µM.
